# Source: article PMC4147587, “Synthesis and Analgesic Effects of μ-TRTX-Hhn1b on Models of Inflammatory and Neuropathic Pain” (Toxins, 2014)
# Like-named read-outs stand apart in the source and are kept apart here. No end group written: not given here.
# What was measured:
# [1] = test system: paroxysmal extreme pain disorder (PEPD); conditions: patients; cited from earlier work
# Text: (§1) Voltage-gated sodium channels (VGSCs) are essential for the initiation and propagation of action potentials in excitable tissues, such as nerves and muscles. Considerable in vivo and in vitro studies indicate that VGSCs play a key role in neuropathic and inflammatory pain, which begins with the aberrant firing of action potential bursts in damaged neuronal tissue. Of the nine subtypes of VGSCs identified to date and designated as Nav1.1–1.9, Nav1.3, 1.7, 1.8 and 1.9 play specialized roles in nociceptive pathways and are considered ideal targets for the development of analgesi ...
# [2] = test system: formalin-induced pain behaviors in rats; test: formalin-induced inflammatory rat model; assay type: in vivo, rat (Sprague-Dawley); conditions: rat, in vivo, ip
# Experimental: Acute and chronic nociceptive responses were measured using the rat paw formalin test as descried by Dubission and modified by Malmberg. Adult Sprague-Dawley rats (male, weighing 180–220 g) were used for this behavioral test. During the test, each rat was placed into open polyvinyl cages (30 cm × 40 cm × 30 cm) and at least 30 min before administration of the toxin. All agents were administered 30 min prior to s.c. intraplantar formalin injection. A volume of 50 μL formalin (5%) solution was used as previously described and injected into the plantar surface of one hind paw. Lifting, favoring, licking, shaking and flinching of the injected paw were recorded as nociceptive responses. The total time of the nociceptive response was measured every 5 min and […] (mean ± SEM). Recording of nociceptive behavior commenced immediately after formalin injection and was continued for 40 min.
# [3] = test system: inherited erythromelalgia (IEM); conditions: patients; cited from earlier work
# Text: as §1
# human Nav1.7 = molecular target: T1, human Nav1.7 (Homo sapiens, UniProt Q15858); test: whole-cell patch clamp, human Nav1.7 transiently expressed in HEK 293 cells; assay type: cell-based; conditions: comparison group printed as "native toxin group"
# T1 construct: expressed in transfected cells; host or cells: HEK293 cells, transient transfection with Lipofectamine 2000
# Text: Figure 2 Inhibitory effect of synthetic μ-TRTX-Hhn1b on Nav1.7 expressed on HEK 293 cells. […] (B) The inhibition of μ-TRTX-Hhn1b on Nav1.7 was dose-dependent. […] Data are plotted as a fraction of the maximum conductance. The voltage-dependence of steady-state inactivation was estimated using a standard double-pulse protocol, in which a 20-ms depolarizing test potential of 0 mV followed a 500-ms prepulse at potentials that ranged from −130 to −10 mV with a 10-mV increment. Cells were held at −100 mV.
# A human Nav1.7 channel plasmid (accession No. NM_002977) and a plasmid for green ﬂuorescent protein were transiently transfected into human embryonic kidney 293 (HEK293) cells using Lipofectamine 2000 (Invitrogen, Carlsbad, CA, USA) according to the manufacturer’s instructions. HEK293 cells were grown under standard tissue culture conditions (5% CO2; 37 °C) in DMEM supplemented with 10% FBS. The β1 subunit was cotransfected with the Nav1.7 channel to increase the current density. Cells with green ﬂuorescence were selected for whole-cell patch-clamp recording at 36–72 h after transfection. Patch-clamp experiments were performed at room temperature. Suction pipettes (2.0–3.0 MΩ) were made from borosilicate glass capillary tubes using a two-step vertical micropipette puller. The pipette solution contained (in mM): CsCl 145, MgCl2∙6H2O 4, HEPES 10, EGTA 10, glucose 10, ATP 2 (pH 7.2). The external solution contained (in mM): NaCl 145, KCl 2.5, CaCl2 1.5, MgCl2.6H2O 1.2, HEPES 10, glucose 10 (pH 7.4). Experimental data were collected and analyzed using the program Pulse/Pulsefit 8.0 (HEKA Electronics, Pfalz, Germany). Macroscopic sodium currents were filtered at 5 kHz and digitized at 20 kHz with an EPC-9 patch-clamp amplifier (HEKA Electronics, Pfalz, Germany). Series resistance was kept near 5 MΩ and compensated to 65%–70%; linear capacitative and leakage currents were digitally subtracted using the P/4 protocol.
# Nav1.7 = conditions: native toxin; ref 27 (unpublished work, 2014); cited from earlier work
# Text: μ-TRTX-Hhn1b (HNTX-IV) is a 35-residue peptide from tarantula Ornithoctonus hainana (Haplopelma hainanum) venom. The amino acid sequence is […]. The peptide amidated at its C-terminal has a high proportion of basic residues and is crosslinked by three disulfide bonds.
# [4] = test system: Nav1.2, Nav1.3, Nav1.4, Nav1.5, Nav1.7; conditions: native toxin; ref 27 (unpublished work, 2014); cited from earlier work
# [5] = test system: motor coordination of rats (latency to fall off the rotarod); assay type: in vivo, rat (Sprague-Dawley); conditions: rat, in vivo
# Experimental: Motor activity was assessed using a rotarod apparatus for rats (Coulbourn Instruments, Lehigh Valley, PA, USA). The rotarod might be set at any speed from 0 to 50 rpm. For motor coordination assessment, rats were trained for 2 days by walking them each day on an accelerating rotarod from 4 to 40 rpm for 10 min. […] Motor performance was considered as the latency to fall off the rotarod apparatus determined from the mean time in three trials for each rat at each time.
# [6] = test system: rat models of neuropathic pain; conditions: 37.5 mg/kg i.p., cited from earlier work
# Text: A total of 30 rats with mechanical allodynia were divided into five groups randomly.
# T1 sequence (Q15858 other isoform, or with tags, fused parts or gaps): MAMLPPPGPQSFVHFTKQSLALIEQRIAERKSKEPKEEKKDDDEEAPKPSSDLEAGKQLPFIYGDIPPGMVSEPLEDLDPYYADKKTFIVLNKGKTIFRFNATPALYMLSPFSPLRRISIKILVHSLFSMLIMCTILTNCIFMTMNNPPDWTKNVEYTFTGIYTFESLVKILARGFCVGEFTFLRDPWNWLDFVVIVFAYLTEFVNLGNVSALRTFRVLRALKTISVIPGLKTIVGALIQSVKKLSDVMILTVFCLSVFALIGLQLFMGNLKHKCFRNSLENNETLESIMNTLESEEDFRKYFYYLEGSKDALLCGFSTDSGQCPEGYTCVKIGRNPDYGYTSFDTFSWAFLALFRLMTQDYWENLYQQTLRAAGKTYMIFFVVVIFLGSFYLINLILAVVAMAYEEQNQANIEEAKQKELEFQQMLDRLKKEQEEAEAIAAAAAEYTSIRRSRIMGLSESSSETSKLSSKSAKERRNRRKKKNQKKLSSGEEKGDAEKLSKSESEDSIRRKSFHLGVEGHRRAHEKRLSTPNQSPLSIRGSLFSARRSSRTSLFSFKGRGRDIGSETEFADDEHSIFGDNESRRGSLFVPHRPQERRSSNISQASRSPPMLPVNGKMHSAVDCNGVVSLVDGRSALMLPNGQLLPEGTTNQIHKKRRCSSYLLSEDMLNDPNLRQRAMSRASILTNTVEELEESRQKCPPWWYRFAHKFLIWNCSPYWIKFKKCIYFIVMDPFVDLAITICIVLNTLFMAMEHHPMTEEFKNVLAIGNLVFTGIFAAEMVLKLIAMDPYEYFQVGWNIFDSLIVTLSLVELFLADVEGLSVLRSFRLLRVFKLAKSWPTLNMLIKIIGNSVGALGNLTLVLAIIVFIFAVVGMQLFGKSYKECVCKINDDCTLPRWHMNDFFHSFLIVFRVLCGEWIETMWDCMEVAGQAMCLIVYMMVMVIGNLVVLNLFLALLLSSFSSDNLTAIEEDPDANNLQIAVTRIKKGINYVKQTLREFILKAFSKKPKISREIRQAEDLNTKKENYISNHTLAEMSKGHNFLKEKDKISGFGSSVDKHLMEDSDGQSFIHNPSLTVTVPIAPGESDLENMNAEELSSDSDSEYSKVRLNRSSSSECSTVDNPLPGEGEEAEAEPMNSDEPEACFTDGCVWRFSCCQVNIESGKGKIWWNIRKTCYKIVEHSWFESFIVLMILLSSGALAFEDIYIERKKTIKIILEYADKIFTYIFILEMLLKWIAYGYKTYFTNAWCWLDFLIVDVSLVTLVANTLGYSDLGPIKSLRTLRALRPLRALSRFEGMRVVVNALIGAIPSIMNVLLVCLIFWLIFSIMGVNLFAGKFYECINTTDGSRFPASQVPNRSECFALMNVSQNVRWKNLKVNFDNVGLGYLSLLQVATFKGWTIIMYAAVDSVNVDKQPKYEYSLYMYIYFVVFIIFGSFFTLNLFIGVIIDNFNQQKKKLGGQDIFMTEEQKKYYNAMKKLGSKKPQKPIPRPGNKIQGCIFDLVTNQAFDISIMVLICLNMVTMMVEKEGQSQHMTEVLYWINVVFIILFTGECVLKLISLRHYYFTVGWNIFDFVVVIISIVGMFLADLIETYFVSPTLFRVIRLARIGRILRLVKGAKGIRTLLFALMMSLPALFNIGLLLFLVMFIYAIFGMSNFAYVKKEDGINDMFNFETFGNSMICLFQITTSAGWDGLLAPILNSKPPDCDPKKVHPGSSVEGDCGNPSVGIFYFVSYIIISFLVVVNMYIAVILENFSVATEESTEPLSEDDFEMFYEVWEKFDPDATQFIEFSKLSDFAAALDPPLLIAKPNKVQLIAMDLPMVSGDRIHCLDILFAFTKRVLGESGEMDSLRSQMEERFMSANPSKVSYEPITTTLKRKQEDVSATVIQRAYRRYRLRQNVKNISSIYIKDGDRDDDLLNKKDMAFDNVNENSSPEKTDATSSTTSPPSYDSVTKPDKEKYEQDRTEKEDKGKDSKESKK
# T1 sequence (Q07699 19-218, further chain): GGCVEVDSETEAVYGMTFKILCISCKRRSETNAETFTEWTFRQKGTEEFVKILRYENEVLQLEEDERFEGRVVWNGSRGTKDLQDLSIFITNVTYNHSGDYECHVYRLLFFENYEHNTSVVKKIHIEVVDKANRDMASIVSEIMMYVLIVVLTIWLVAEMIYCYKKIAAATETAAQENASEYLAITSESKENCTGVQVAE
compound,measurement,setting,value
NC(=O)N1c2ccccc2C=Cc2ccccc21 [carbamazepine],control of PEPD,[1],well controlled
"CN1CC[C@]23c4c5ccc(O)c4O[C@H]2[C@@H](O)C=C[C@H]3[C@H]1C5 [morphine, reference compound]",pain score,[2],225.0 ± 55.8 s
CCN(CC)CC(=O)Nc1c(C)cccc1C [lidocaine],treatment of IEM,[3],very ineffective
"ECLGFGKGCNPSNDQCCKSSNLVCSRKHRWCKYEI (disulfide (positions not given here)) [native μ-TRTX-Hhn1b, reference compound]",half-activation voltage of Nav1.7,human Nav1.7,−20.5 ± 0.2 mV
same,half-inactivation voltage of Nav1.7,human Nav1.7,−42.6 ± 0.2 mV
same,IC50,Nav1.7,~21 nM
same,subtype preference,[4],"preferentially inhibited Nav1.2, Nav1.3 and Nav1.7 compared with Nav1.4 and Nav1.5; Nav1.7 was the most sensitive channel"
Cc1cccc(C)c1OCC(C)N (centres unmarked) [mexiletine],latency to fall off the rotarod,[5],significant latency reduction
same,withdrawal threshold to von Frey hair,[6]; 15 min after injection,significantly increased the withdrawal threshold
same,withdrawal threshold to von Frey hair,[6]; 45 min after injection,returned to a level non-significantly different from the baseline and vehicle
same,treatment of IEM,[3],very ineffective
